This passage reports IC50 results from patent US10722501B2 (BAYER AKTIENGESELLSCHAFT, priority 2016, dated 2020).

In the test the target is T1, recombinant full-length human prolyl endopeptidase (PREP) (Homo sapiens, UniProt P48147).
T1 construct: To recombinant full-length human prolyl endopeptidase (PREP, R&D-Systems, 4308-SE); purchased R&D-Systems 4308-SE
T1 sequence (P48147 1-710): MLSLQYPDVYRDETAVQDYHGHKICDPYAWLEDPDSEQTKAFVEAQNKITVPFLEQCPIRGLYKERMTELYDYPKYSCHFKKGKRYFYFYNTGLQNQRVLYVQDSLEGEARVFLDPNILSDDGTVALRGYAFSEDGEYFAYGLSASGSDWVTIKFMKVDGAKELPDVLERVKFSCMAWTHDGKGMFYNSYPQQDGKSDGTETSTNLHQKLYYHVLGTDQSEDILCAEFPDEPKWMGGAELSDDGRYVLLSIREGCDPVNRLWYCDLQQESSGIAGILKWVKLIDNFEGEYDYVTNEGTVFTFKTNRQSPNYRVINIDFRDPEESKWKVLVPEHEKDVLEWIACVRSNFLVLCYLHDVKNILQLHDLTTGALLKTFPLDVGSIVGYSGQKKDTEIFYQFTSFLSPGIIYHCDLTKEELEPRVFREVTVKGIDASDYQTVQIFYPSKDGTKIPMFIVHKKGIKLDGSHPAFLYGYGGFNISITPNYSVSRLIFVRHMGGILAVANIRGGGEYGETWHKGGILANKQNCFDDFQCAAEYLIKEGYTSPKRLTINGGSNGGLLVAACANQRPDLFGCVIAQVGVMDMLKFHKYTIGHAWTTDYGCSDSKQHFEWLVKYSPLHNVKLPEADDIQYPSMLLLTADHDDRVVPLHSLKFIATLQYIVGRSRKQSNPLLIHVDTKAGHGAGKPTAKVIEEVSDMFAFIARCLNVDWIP
The experiment in a line: Biochemical human prolyl endopeptidase (PREP) assay with fluorescently labelled substrate. To be noted: substrate Z-Gly-Pro-AMC 50 μM, 32° C., 60 min; some as mean values from multiple independent determinations. The essentials: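 0.4 nM (final, example) recombinant PREP in pH 7.5 Tris buffer with EDTA, GSH, BSA and Brij-35; compounds at 1 nM to 30 μM. Reaction started with 50 μM Z-Gly-Pro-AMC and followed by fluorescence (ex 360/em 465 nm) at 32° C for 60 min. IC50 interpolated from percent activity based on initial slopes.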
In general, IC50 refers to the midpoint of a concentration-inhibition curve. As for `O=C([C@@H]1CCCc2nn(Cc3ncccc3Cl)c(=O)n21)N1CC[C@H](F)C1` [Example 393, (5S)-2-[(3-Chloropyridin-2-yl)methyl]-5-{[(3S)-3-fluoropyrrolidin-1-yl]carbonyl}-5,6,7,8-tetrahydro[1,2,4]triazolo[4,3-a]pyridin-3(2H)-one], the concentration for half-maximal inhibition (IC50) is 1.4 nM.
Take `O=C([C@@H]1CCCc2nn(Cc3ncccc3Cl)c(=O)n21)N1CC(F)(F)C1` [Example 394, (5S)-2-[(3-Chloropyridin-2-yl)methyl]-5-[(3,3-difluoroazetidin-1-yl)carbonyl]-5,6,7,8-tetrahydro[1,2,4]triazolo[4,3-a]pyridin-3(2H)-one]: the IC50 was 28 nM.
On to `O=C([C@@H]1CCCc2nn(Cc3ncccc3Cl)c(=O)n21)N1C[C@@H](F)[C@@H](F)C1` [Example 395, (5S)-2-[(3-Chloropyridin-2-yl)methyl]-5-{[(3R,4S)-3,4-difluoropyrrolidin-1-yl]carbonyl}-5,6,7,8-tetrahydro[1,2,4]triazolo[4,3-a]pyridin-3(2H)-one], for which the IC50 came out at 1.6 nM.
In the case of `O=C([C@@H]1CCCc2nn(Cc3ncccc3Cl)c(=O)n21)N1CC(F)C1` [Example 396, (5S)-2-[(3-Chloropyridin-2-yl)methyl]-5-[(3-fluoroazetidin-1-yl)carbonyl]-5,6,7,8-tetrahydro[1,2,4]triazolo[4,3-a]pyridin-3(2H)-one] it was 6 nM; in that of `O=C([C@@H]1CCCc2nn(Cc3ncc(Cl)cc3Cl)c(=O)n21)N1CC(F)(F)C1` [Example 397, (5S)-2-[(3,5-Dichloropyridin-2-yl)methyl]-5-[(3,3-difluoroazetidin-1-yl)carbonyl]-5,6,7,8-tetrahydro[1,2,4]triazolo[4,3-a]pyridin-3(2H)-one], 6.9 nM; in that of `O=C([C@@H]1CCCc2nn(Cc3ncc(Cl)cc3Cl)c(=O)n21)N1CC(F)C1` [Example 398, (5S)-2-[(3,5-Dichloropyridin-2-yl)methyl]-5-[(3-fluoroazetidin-1-yl)carbonyl]-5,6,7,8-tetrahydro[1,2,4]triazolo[4,3-a]pyridin-3(2H)-one], 1.19 nM.
Take `O=C([C@@H]1CCCc2nn(Cc3ncc(Cl)cc3Cl)c(=O)n21)N1CCC(F)(F)C1` [Example 399, (5S)-2-[(3,5-Dichloropyridin-2-yl)methyl]-5-[(3,3-difluoropyrrolidin-1-yl)carbonyl]-5,6,7,8-tetrahydro[1,2,4]triazolo[4,3-a]pyridin-3(2H)-one]: the IC50 was determined as 1.55 nM.
In the case of `O=C([C@@H]1CCCc2nn(Cc3ncc(Cl)cc3Cl)c(=O)n21)N1C[C@@H](F)[C@@H](F)C1` [Example 400, (5S)-2-[(3,5-Dichloropyridin-2-yl)methyl]-5-{[(3R,4S)-3,4-difluoropyrrolidin-1-yl]carbonyl}-5,6,7,8-tetrahydro[1,2,4]triazolo[4,3-a]pyridin-3(2H)-one] it was 0.455 nM; in that of `O=C([C@@H]1CCCc2nn(Cc3ncc(C(F)(F)F)cc3Cl)c(=O)n21)N1CC[C@@H](F)C1` [Example 401, (5S)-2-{[3-Chloro-5-(trifluoromethyl)pyridin-2-yl]methyl}-5-{[(3R)-3-fluoropyrrolidin-1-yl]carbonyl}-5,6,7,8-tetrahydro[1,2,4]triazolo[4,3-a]pyridin-3(2H)-one], 3.4 nM; in that of `O=C([C@@H]1CCCc2nn(Cc3ncc(C(F)(F)F)cc3Cl)c(=O)n21)N1CC(F)C1` [Example 402, (5S)-2-{[3-Chloro-5-(trifluoromethyl)pyridin-2-yl]methyl}-5-[(3-fluoroazetidin-1-yl)carbonyl]-5,6,7,8-tetrahydro[1,2,4]triazolo[4,3-a]pyridin-3(2H)-one], 2.7 nM.
In the case of `O=C([C@@H]1CCCc2nn(Cc3ncc(C(F)(F)F)cc3Cl)c(=O)n21)N1CCC(F)(F)C1` [Example 404, (5S)-2-{[3-Chloro-5-(trifluoromethyl)pyridin-2-yl]methyl}-5-[(3,3-difluoropyrrolidin-1-yl)carbonyl]-5,6,7,8-tetrahydro[1,2,4]triazolo[4,3-a]pyridin-3(2H)-one] it was 2.33 nM.
For `O=C([C@@H]1CCCc2nn(Cc3ncc(C(F)(F)F)cc3Cl)c(=O)n21)N1CC[C@H](F)C1` [Example 405, (5S)-2-{[3-Chloro-5-(trifluoromethyl)pyridin-2-yl]methyl}-5-{[(3S)-3-fluoropyrrolidin-1-yl]carbonyl}-5,6,7,8-tetrahydro[1,2,4]triazolo[4,3-a]pyridin-3(2H)-one] the value was 0.225 nM; for `O=C([C@@H]1CCCc2nn(Cc3ncc(Cl)cc3F)c(=O)n21)N1CCC(F)(F)C1` [Example 406, (5S)-2-[(5-Chloro-3-fluoropyridin-2-yl)methyl]-5-[(3,3-difluoropyrrolidin-1-yl)carbonyl]-5,6,7,8-tetrahydro[1,2,4]triazolo[4,3-a]pyridin-3(2H)-one], 3.6 nM.
For the molecule `O=C([C@@H]1CCCc2nn(Cc3ncc(Cl)cc3F)c(=O)n21)N1CC(F)C1` [Example 407, (5S)-2-[(5-Chloro-3-fluoropyridin-2-yl)methyl]-5-[(3-fluoroazetidin-1-yl)carbonyl]-5,6,7,8-tetrahydro[1,2,4]triazolo[4,3-a]pyridin-3(2H)-one], the IC50 is 1.35 nM.
In the case of `O=C([C@@H]1CCCc2nn(Cc3ncc(Cl)cc3F)c(=O)n21)N1C[C@@H](F)[C@@H](F)C1` [Example 408, (5S)-2-[(5-Chloro-3-fluoropyridin-2-yl)methyl]-5-{[(3R,4S)-3,4-difluoropyrrolidin-1-yl]carbonyl}-5,6,7,8-tetrahydro[1,2,4]triazolo[4,3-a]pyridin-3(2H)-one] it was 0.46 nM; in that of `O=C([C@@H]1CCCc2nn(Cc3ncc(Cl)cc3F)c(=O)n21)N1CC(F)(F)C1` [Example 409, (5S)-2-[(5-Chloro-3-fluoropyridin-2-yl)methyl]-5-[(3,3-difluoroazetidin-1-yl)carbonyl]-5,6,7,8-tetrahydro[1,2,4]triazolo[4,3-a]pyridin-3(2H)-one], 14 nM; in that of `O=C([C@@H]1CCCc2nn(Cc3ncc(F)cc3F)c(=O)n21)N1CC(F)C1` [Example 410, (5S)-2-[(3,5-Difluoropyridin-2-yl)methyl]-5-[(3-fluoroazetidin-1-yl)carbonyl]-5,6,7,8-tetrahydro[1,2,4]triazolo[4,3-a]pyridin-3(2H)-one], 7.7 nM.
In the case of `O=C([C@@H]1CCCc2nn(Cc3ncc(F)cc3F)c(=O)n21)N1C[C@@H](F)[C@@H](F)C1` [Example 411, (5S)-2-[(3,5-Difluoropyridin-2-yl)methyl]-5-{[(3R,4S)-3,4-difluoropyrrolidin-1-yl]carbonyl}-5,6,7,8-tetrahydro[1,2,4]triazolo[4,3-a]pyridin-3(2H)-one] it was 2.5 nM.
In the case of `O=C([C@@H]1CCCc2nn(Cc3ncc(F)cc3F)c(=O)n21)N1CCC(F)(F)C1` [Example 412, (5S)-2-[(3,5-Difluoropyridin-2-yl)methyl]-5-[(3,3-difluoropyrrolidin-1-yl)carbonyl]-5,6,7,8-tetrahydro[1,2,4]triazolo[4,3-a]pyridin-3(2H)-one] it was 3 nM; in that of `Cn1nc(Cn2nc3n(c2=O)[C@H](C(=O)N2CCC(F)(F)C2)CCC3)c2cccnc21` [Example 413, (5S)-5-[(3,3-Difluoropyrrolidin-1-yl)carbonyl]-2-[(1-methyl-1H-pyrazolo[3,4-b]pyridin-3-yl)methyl]-5,6,7,8-tetrahydro[1,2,4]triazolo[4,3-a]pyridin-3(2H)-one], 1.9 nM.
For the molecule `Cn1nc(Cn2nc3n(c2=O)[C@H](C(=O)N2C[C@@H](F)[C@@H](F)C2)CCC3)c2cccnc21` [Example 414, (5S)-5-{[(3R,4S)-3,4-Difluoropyrrolidin-1-yl]carbonyl}-2-[(1-methyl-1H-pyrazolo[3,4-b]pyridin-3-yl)methyl]-5,6,7,8-tetrahydro[1,2,4]triazolo[4,3-a]pyridin-3(2H)-one], the IC50 stood at 0.79 nM.
In the case of `Cn1nc(Cn2nc3n(c2=O)[C@H](C(=O)N2CC(F)(F)C2)CCC3)c2cccnc21` [Example 415, (5S)-5-[(3,3-Difluoroazetidin-1-yl)carbonyl]-2-[(1-methyl-1H-pyrazolo[3,4-b]pyridin-3-yl)methyl]-5,6,7,8-tetrahydro[1,2,4]triazolo[4,3-a]pyridin-3(2H)-one] it was 5.4 nM; in that of `O=C([C@@H]1CCCc2nn(Cc3cc4cccnc4nc3C(F)(F)F)c(=O)n21)N1CCC(F)(F)C1` [Example 418, (5S)-5-[(3,3-Difluoropyrrolidin-1-yl)carbonyl]-2-{[2-(trifluoromethyl)-1,8-naphthyridin-3-yl]methyl}-5,6,7,8-tetrahydro[1,2,4]triazolo[4,3-a]pyridin-3(2H)-one], 2.24 nM.
